The text below walks through data of patent US20110160136A1, “POLYPHENOLS FOR THE TREATMENT OF CARTILAGE DISORDERS” (NESTEC S.A., priority 2008, published 2011).

The test deals with Articular cartilage explants. Kind of test: IL1β-induced glycosaminoglycan (GAG) release from 35S-labelled articular cartilage explants. It is filed as cell-based, cows. As to conditions: polyphenolic compounds extracted e.g. from rosemary plants; qualitative statement. From the text: Articular cartilage explants are dissected out of the metacarpophalangeal joint of old cows (8-10 years). The skin is removed from the feet. The articulation is opened transversally. Intra articular ligaments are transected. Full thickness slices of cartilage are dissected out and put in a Petri dish containing DMEM supplemented with 20% FBS ([…]) and antibiotics (penicillin, streptomycin and gentamycin). Under the hood, disks of cartilage obtained by using a biopsy punch (6 mm in diameter) are distributed between the wells of a 96-wells plate containing 200 μl of medium (DMEM+20% FBS, 1% penicillin/streptomycin, 0.1% gentamycin) per well. Finally, plates are put into an incubator (37° C./5% CO2).
Five days after their harvest, the explants are divided into several different treatment conditions:
1—negative control: the wells contain only culture medium. 2—positive stimulatory control: Interleukin 1β(IL1β) is added to the media at the concentration of 50 ng per ml. This cytokine is used to stimulate the catabolism and to induce inflammation. 3—positive inhibitory control: d15-PGJ2 (a peroxisome proliferator activated receptor γ agonist) and hymenialdisine are co-added, to the medium, with IL1β, to counteract the catabolic effect of this cytokine (Sabatini M, et al. (2002) Osteoarthritis Cartilage 10(9): 673-679; Scher J U, et al. (2005) Clin Immunol 114(2): 100-109; Boyault S, et al. (2001) Febs Letters 501(1): 24-30) 4, 5, 6, 7, 8 (if present)—tested compounds: these conditions test the effects of three concentrations of a polyphenol in presence of IL1β.
The explants undergo these treatments for 72 hours in the incubator (37° C., 5% CO2). The following protocol is based on the disclosure of Campbell et al. (1984) Arch Biochem Biophys 234(1): 275-289 and Hascall V C, et al. (1983) ArchBiochem Biophys 224(1): 206-223 and was carried out 48 hours after the harvest of the explants,
Sulphur 35 (35S) was added to the medium to be incorporated into newly synthesized polysulfated glycosaminoglycans within the extracellular matrix of the explants. After 72 hours, several washes were performed to eliminate the non-incorporated radioactivity. The explants were then treated for 72 hours, after which the supernatants were collected and the amount of radioactivity released in the medium was measured with a beta counter, as a marker of glycosaminoglycan (GAG) catabolism. The radioactivity present in the explants was also measured and used to normalize the amount of radioactivity released in the media. The radioactivity was expressed in DPM ([…]) and the GAG release was assessed by the following formula:
GAG release=radioactivity in the supernatants/(radioactivity in the supernatants+radioactivity in the explants)
On to `COc1cc2oc(-c3ccc(O)cc3)cc(=O)c2c(O)c1OC` [cirsimaritin], for which the anti-catabolic potential entry is on record as “anti-catabolic potential”. Turning to `O=c1c(O)c(-c2ccc(O)cc2)oc2cc(O)cc(O)c12` [kaempferol], the anti-catabolic potential result is reported as “anti-catabolic potential”. Next, `CC(C)c1cc2c(c(O)c1O)[C@@]13CCCC(C)(C)[C@@H]1[C@H](OC3=O)[C@H]2O` [rosmanol]: “anti-catabolic potential”; `CC(C)c1cc2c(c(O)c1O)[C@@]13CCCC(C)(C)[C@@H]1C[C@@H]2OC3=O` [carnosol]: “anti-catabolic potential”; `O=C(/C=C/c1ccc(O)c(O)c1)O[C@H](Cc1ccc(O)c(O)c1)C(=O)O` [rosmarinic acid]: “anti-catabolic potential”.

For the compound `COc1cc(C=CC(=O)OCC2OC(Oc3cc4oc(-c5ccc(O)c(O)c5)cc(=O)c4c(O)c3OC)C(O)C(O)C2O)ccc1O` (stereo not shown) [6″-Feruloylnepitrin], the anti-catabolic potential entry is on record as “anti-catabolic potential”.

With `O=c1cc(-c2ccc(O)c(O)c2)oc2cc(O)cc(O)c12` [luteolin], the anti-catabolic potential result was “anti-catabolic potential”.

For the compound `COc1c(O)cc2oc(-c3ccc(O)c(O)c3)cc(=O)c2c1O` [6-methoxy-luteolin], the anti-catabolic potential entry is on record as “anti-catabolic potential”. Next, `CC(C)c1cc2c(c(O)c1O)C13CCCC(C)(C)C1C(OC3=O)C2O` (stereo not shown) [7-epirosmannol]: “anti-catabolic potential”; `COc1c(OC2OC(COC(=O)C=Cc3ccc(O)cc3)C(O)C(O)C2O)cc2oc(-c3ccc(O)c(O)c3)cc(=O)c2c1O` (stereo not shown) [6″-Coumaroylnepitrin]: “anti-catabolic potential”.
